As a reminder, the pEC50 is the EC50 on a negative log10 scale, so that one unit is a factor of ten.

pEC50: −log10 of the molar value. Some results are limits rather than exact numbers.

In the first assay the target is T1, REV-ERBα LBD (human; residues 281-614 Δ324-422) (Homo sapiens, UniProt P20393, DEL324-422).
T1 construct: 6×Histag-REV-ERBα LBD (human; residues 281-614 Δ324-422); made in house; host or cells: Escherichia coli
T1 sequence (P20393 with tags, fused parts or gaps DEL324-422): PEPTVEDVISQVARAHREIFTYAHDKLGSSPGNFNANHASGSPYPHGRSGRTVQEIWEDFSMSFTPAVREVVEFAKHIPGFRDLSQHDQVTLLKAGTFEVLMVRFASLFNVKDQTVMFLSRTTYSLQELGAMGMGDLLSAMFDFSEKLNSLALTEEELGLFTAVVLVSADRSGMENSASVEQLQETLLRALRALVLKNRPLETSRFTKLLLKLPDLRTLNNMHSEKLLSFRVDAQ
T1 sequence (Q9Y618 2335-2356 partner limits assumed): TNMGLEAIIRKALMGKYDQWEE
Description: TR-FRET corepressor interaction assay (REV-ERBα LBD, FITC-SMRT peptide). In kind it is biochemical. Conditions: FITC-SMRT peptide, read-out: REVERBα agonism (EC50 class, FRET assay). Summed up: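 Compound serial dilutions (in DMSO, triplicate) incubated 2 h at 4 °C; Tb donor excited at 340 nm, emission read at 495 nm and FITC acceptor at 520 nm. TR-FRET ratio (520/495 nm) plotted against ligand concentration and fitted to a sigmoidal dose-response curve.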
For orientation: In TR-FRET formats the signal depends on donor and acceptor labels being close together.
Consider `CC(C)(C)Cn1cc([C@H](NS(=O)(=O)C2COC2)C(F)(F)F)c2cc(F)c(-c3ccccc3C(F)(F)F)cc21` [Example 459, (S)—N-(2,2,2-trifluoro-1-(5-fluoro-1-neopentyl-6-(2-(trifluoromethyl)phenyl)-1H-indol-3-yl)ethyl)oxetane-3-sulfonamide], for which the pEC50 was more than 6.30.

For the molecule `CC(C)(C)Cn1cc([C@H](NS(=O)(=O)C2CC2)C(F)F)c2ccc(-c3ccccc3C(F)(F)F)nc21` [Example 547, (S)—N-(2,2-difluoro-1-(1-neopentyl-6-(2-(trifluoromethyl)phenyl)-1H-pyrrolo[2,3-b]pyridin-3-yl)ethyl)cyclopropanesulfonamide], the pEC50 is more than 6.30.

On to `CC(C)(C)C(=O)n1cc([C@H](NS(=O)(=O)C2CC2)C(F)(F)F)c2ccc(-c3ccccc3C(F)(F)F)cc21` [Example 480, (S)—N-(2,2,2-trifluoro-1-(1-pivaloyl-6-(2-(trifluoromethyl)phenyl)-1H-indol-3-yl)ethyl)cyclopropanesulfonamide], for which the pEC50 is 5.52 to 6.30.

`CC(C)(C)Cn1cc([C@H](NS(=O)(=O)C2CCC2)C(F)F)c2ccc(-c3ccccc3C(F)(F)F)cc21` [Example 513, (S)—N-(2,2-difluoro-1-(1-neopentyl-6-(2-(trifluoromethyl)phenyl)-1H-indol-3-yl)ethyl)cyclobutanesulfonamide]: the pEC50 is more than 6.30.

On to `[2H]C([2H])([2H])C(NS(=O)(=O)C1CCC1)c1cn(CC(C)(C)C)c2cc(-c3ccccc3C(F)(F)F)ccc12` (stereo not shown) [Example 509, N-(1-(1-neopentyl-6-(2-(trifluoromethyl)phenyl)-1H-indol-3-yl)ethyl-2,2,2-d3)cyclobutanesulfonamide], for which the pEC50 was more than 6.30.

For the molecule `CC(C)(C)Cn1cc([C@H](NS(=O)(=O)C2CC2)C(F)F)c2cc(F)c(-c3ccccc3C(F)(F)F)nc21` [Example 546, (S)—N-(2,2-difluoro-1-(5-fluoro-1-neopentyl-6-(2-(trifluoromethyl)phenyl)-1H-pyrrolo[2,3-b]pyridin-3-yl)ethyl)cyclopropanesulfonamide], the pEC50 is more than 6.30.

Take `CCC(NS(=O)(=O)C1CCC1)c1cn(CC(C)(C)C)c2cc(-c3ccccc3C(F)(F)F)ccc12` (stereo not shown) [Example 425, N-(1-(1-neopentyl-6-(2-(trifluoromethyl)phenyl)-1H-indol-3-yl)propyl)cyclobutanesulfonamide]: the pEC50 was more than 6.30.

Regarding `CC(C)(C)Cn1cc([C@H](NS(=O)(=O)C2CC2)C(F)(F)F)c2cc(F)c(-c3cscn3)cc21` [Example 465, N-[(1S)-1-[1-(2,2-dimethylpropyl)-5-fluoro-6-thiazol-4-yl-indol-3-yl]-2,2,2-trifluoro-ethyl]cyclopropanesulfonamide], the pEC50 was 5.52 to 6.30.

Regarding `CC(C)(CO)Cn1cc([C@H](NS(=O)(=O)C2CC2)C(F)(F)F)c2cc(F)c(-c3ccccc3C(F)(F)F)cc21` [Example 490, N-[(1S)-2,2,2-trifluoro-1-[5-fluoro-1-(3-hydroxy-2,2-dimethyl-propyl)-6-[2-(trifluoromethyl)phenyl]indol-3-yl]ethyl]cyclopropanesulfonamide], the pEC50 is 5.52 to 6.30.

Take `CC(C)(C)Cn1cc([C@@H](CF)NS(=O)(=O)C2CCC2)c2ccc(-c3ccccc3C(F)(F)F)cc21` [Example 516, (S)—N-(2-fluoro-1-(1-neopentyl-6-(2-(trifluoromethyl)phenyl)-1H-indol-3-yl)ethyl)cyclobutanesulfonamide]: the pEC50 is more than 6.30.

The assay is the same for the next values; noted with them: Table 2, read-out: REVERBα agonism (EC50 class, FRET assay).
Regarding `CC(C)(C)Cn1cc([C@H](NS(=O)(=O)C2CC2)C(F)(F)F)c2ccc(Br)cc21` [Example 343, (S)—N-(1-(6-bromo-1-neopentyl-1H-indol-3-yl)-2,2,2-trifluoroethyl)cyclopropanesulfonamide], the pEC50 is more than 6.30.

Take `CC(C)Cn1cc(C(NS(=O)(=O)N(C)C)C(F)(F)F)c2ccc(-c3ccccc3C(F)(F)F)cc21` (stereo not shown) [Example 223, dimethyl({2,2,2-trifluoro-1-[1-(2-methylpropyl)-6-[2-(trifluoromethyl)phenyl]-1H-indol-3-yl]ethyl}sulfamoyl)amine]: the pEC50 was more than 6.30.

As for `CC(C)Cn1cc(CCN(C)S(=O)(=O)N(C)C)c2ccc(C(F)(F)F)cc21` [Example 121, dimethyl[methyl({2-[1-(2-methylpropyl)-6-(trifluoromethyl)-1H-indol-3-yl]ethyl})sulfamoyl]amine], the pEC50 is 5.52 to 6.30.

Turning to `CC(C)Cn1cc(CCNS(=O)(=O)N(C)C)c2ccc(OC(C)C)cc21` [Example 118, N′-{2-[6-isopropoxy-1-(2-methylpropyl)-1H-indol-3-yl]ethyl}-N,N-dimethylsulfuric diamide], the pEC50 is 5.52 to 6.30.

For the molecule `CC(C)Cn1cc([C@H](NS(=O)(=O)N(C)C)C(F)(F)F)c2cc(F)c(-c3ccccc3C(F)(F)F)cc21` [Example 320, dimethyl({[(1S)-2,2,2-trifluoro-1-[5-fluoro-1-(2-methylpropyl)-6-[2-(trifluoromethyl)phenyl]-1H-indol-3-yl]ethyl]sulfamoyl})amine], the pEC50 is more than 6.30.

As to `CC(C)S(=O)(=O)NCCn1cc(CC(C)(C)C)c2cc(-c3ccc(C(F)(F)F)cc3C(F)(F)F)ccc21` [Example 417, N-(2-(5-(2,4-bis(trifluoromethyl)phenyl)-3-neopentyl-1H-indol-1-yl)ethyl)propane-2-sulfonamide], the pEC50 is more than 6.30.

Consider `COC(C)(C)Cn1cc([C@H](NS(=O)(=O)C2CCC2)C(F)(F)F)c2cc(F)c(-c3ccccc3C(F)(F)F)cc21` [Example 391, N-[(1S)-2,2,2-trifluoro-1-[5-fluoro-1-(2-methoxy-2-methyl-propyl)-6-[2-(trifluoromethyl)phenyl]indol-3-yl]ethyl]cyclobutanesulfonamide], for which the pEC50 is more than 6.30.

With `CC(C)(C)Cn1cc([C@H](NS(=O)(=O)C2CC2)C(F)(F)F)c2cc(F)c(-c3c(F)cccc3C(F)(F)F)cc21` [Example 351, N-((1S)-2,2,2-trifluoro-1-(5-fluoro-6-(2-fluoro-6-(trifluoromethyl)phenyl)-1-neopentyl-1H-indol-3-yl)ethyl)cyclopropanesulfonamide], the pEC50 was more than 6.30.

For `CC(NS(=O)(=O)C1CC1)c1cn(CC(C)(C)C)c2cc(-c3ccccc3C(F)(F)F)ccc12` (stereo not shown) [Example 420, N-(1-(1-neopentyl-6-(2-(trifluoromethyl)phenyl)-1H-indol-3-yl)ethyl)-cyclopropanesulfonamide], the pEC50 was more than 6.30.

On to `CC(C)S(=O)(=O)N[C@@H](c1cn(CC(C)(C)C)c2cc(-c3ccccc3C(F)(F)F)c(F)cc12)C(F)(F)F` [Example 348, (S)—N-(2,2,2-trifluoro-1-(5-fluoro-1-neopentyl-6-(2-(trifluoromethyl)phenyl)-1H-indol-3-yl)ethyl)propane-2-sulfonamide], for which the pEC50 was 5.52 to 6.30.

On to `CN(C)S(=O)(=O)NCCc1cn(CCc2ccccc2)c2cc(-c3ccncc3)ccc12` [Example 154, N′-{2-[6-(pyridin-4-yl)-1-phenethyl-1H-indol-3-yl]ethyl}-N,N-dimethylsulfuric diamide], for which the pEC50 is 5.52 to 6.30.

Turning to `CC(C)(C)Cn1cc([C@H](NS(=O)(=O)C2CCCC2)C(F)(F)F)c2cc(F)c(-c3ccccc3C(F)(F)F)cc21` [Example 372, (S)—N-(2,2,2-trifluoro-1-(5-fluoro-1-neopentyl-6-(2-(trifluoromethyl)phenyl)-1H-indol-3-yl)ethyl)cyclopentanesulfonamide], the pEC50 is 5.52 to 6.30.

Regarding `CC(C)Cn1cc([C@H](NS(=O)(=O)C2CC2)C(F)(F)F)c2cc(F)c(C3CC3)cc21` [Example 315, (S)—N-(1-(6-cyclopropyl-5-fluoro-1-isobutyl-1H-indol-3-yl)-2,2,2-trifluoroethyl)cyclopropanesulfonamide], the pEC50 is more than 6.30.

Regarding `CC(C)(C)Cc1cn(CCNS(=O)(=O)C2CC2)c2ccc(-c3cncc4ccccc34)cc12` [Example 218, N-(2-(5-(isoquinolin-4-yl)-3-neopentyl-1H-indol-1-yl)ethyl)cyclopropane-sulfonamide], the pEC50 was 5.52 to 6.30.

For `CN(C)S(=O)(=O)NCCc1cn(C2CC2)c2cc(-c3ccncc3)ccc12` [Example 134, N′-{2-[6-(pyridin-4-yl)-1-cyclopropyl-1H-indol-3-yl]ethyl}-N,N-dimethylsulfuric diamide], the pEC50 is less than 5.52.

As to `Cc1ccc(-c2ccc3c(CCNS(=O)(=O)N(C)C)cn(CC(C)C)c3c2)cc1` [Example 48, N-{2-[6-(4-methylphenyl)-1-(2-methylpropyl)-1H-indol-3-yl]ethyl}-N,N-dimethylsulfuric diamide], the pEC50 was 5.52 to 6.30.

Turning to `CC(C)C(=O)n1cc(CNS(=O)(=O)N(C)C)c2ccc(-c3ccccc3Cl)cc21` [Example 183], the pEC50 was 5.52 to 6.30.

On to `CC(C)Cn1cc([C@H](NS(=O)(=O)C2CC2)C(F)(F)F)c2cc(F)c(C(C)C)cc21` [Example 334, (S)—N-(2,2,2-trifluoro-1-(5-fluoro-1-isobutyl-6-isopropyl-1H-indol-3-yl)ethyl)cyclopropanesulfonamide], for which the pEC50 is 5.52 to 6.30.

For the molecule `O=S(=O)(NCc1cn(CC(C(F)(F)F)C(F)(F)F)c2cc(-c3ccncc3Cl)c(F)cc12)C1CC1` [Compound 284], the pEC50 was 5.52 to 6.30.

Regarding `CC(C)(C)Cn1cc([C@H](NS(=O)(=O)C2CC2)C(F)(F)F)c2ccc(-c3cccc(F)c3C#N)cc21` [Example 386, (S)—N-(1-(6-(2-cyano-3-fluorophenyl)-1-neopentyl-1H-indol-3-yl)-2,2,2-trifluoroethyl)cyclopropanesulfonamide], the pEC50 was 5.52 to 6.30.

With `CC(C)(C)Cn1cc([C@H](NS(=O)(=O)C2CC(F)(F)C2)C(F)(F)F)c2ccc(-c3ccccc3C(F)(F)F)cc21` [Example 419, (S)-3,3-difluoro-N-(2,2,2-trifluoro-1-(1-neopentyl-6-(2-(trifluoromethyl)phenyl)-1H-indol-3-yl)ethyl)cyclobutane-1-sulfonamide], the pEC50 was 5.52 to 6.30.
